# Source: patent publication US20240034761A1, “REGENERATION OF MAMMALIAN TISSUES USING SYNTHETIC IMMODULINS” (priority 2022, published 2024)
# Marks after values point to notes of the source that are not given here. Square brackets hold non-standard residues; d marks the D form. Ends that are not written are not given here. Peptide text beside a SMILES is read from it.
# Assays:
# [1] = PIP-binding membrane assay (Membrane Lipid Strips); set-up: key: —: −−− no binding; +++ strong binding; details: 400 ng peptide
# Experimental: N-terminally biotinylated versions of the peptides listed below were used in various assays listed in the examples. For the two types of phosphatidylinositon phosphate (PIP)-binding assays, imm1-imm6 peptides were used.
# In the PIP-binding membrane assay, 400 ng of each peptide was bound to Membrane Lipid Strips (Catalog # P-6002, Echelon Biosciences, Salt Lake City, UT) and developed according to the manufacturer's instructions. Binding to PIPs was as follows (−−− no binding; +++ strong binding): […]
# [2] = Plate binding of FITC-labelled hyaluronic acid to immobilised biotinylated peptides; details: 400 ng peptide/well, 1 ug FITC-HMW-HA, PBS; normalized to immX3 peptide binding = 100
# Experimental: (§1) Effects of pH, PIP2 and size classes: Streptavidin-coated 96-well plates (G-Biosciences, St. Louis, MO) were pre-loaded with biotinylated peptides [see Example 1] at 400 ng/well, at room temperature for 60 minutes. The plate was washed with PBS buffer and then 1 ug FITC-labelled heparin or hyaluronic acid (FITC-HMW-HA) in 100 uL PBS buffer was added per well (all tests done in quadruplicate). Incubation proceeded for 90 minutes at room temperature, followed by two PBS washes. The plate was read in a standard laboratory fluorometer (488/525 nm exitation/[…]) and the counts normalized for immX3 peptide binding=100. Values statistically above background are shown in bold font. **p<0.05 versus immX3AVD.
# [3] = test system: THP1-Dual monocyte reporter cell line; experiment: THP1-Dual myeloid cell differentiation assay (PMA protocol); type: cell-based, human; details: PMA 24 h, then peptide 0.33 uM or 0.66 uM 24 h; for CD169+ (AU) / Clec12A(AU): relative to immX3AVD = 100; for CCL22: culture supernatant
# Experimental: (§2) Mammalian cell differentiation assays employed the THP1-Dual monocyte reporter cell line (Invivogen Inc, San Diego, CA) seeded at 2×10e5 cells per well in 96-well plates and cultured at 37 degrees C. in RPMI-1640 growth medium plus 10% fetal bovine serum and 1% penicillin/streptomycin. Cells were subsequently treated for 24 hours with 100 ng/ml Phorbol 12-myristate 13-acetate (PMA protocol; Cayman Chemical Company, Ann Arbor, MI). Peptide (0.33 uM or 0.66 uM, as indicated) was then added, and incubation continued for an additional 24 hours. Culture supernatants were assayed for CCL22. Plates with adherent cells were washed with PBS and assayed for immunoreactivity of surface markers such as CD169, Clec9a or Clec12a using fuorescent tag- or biotin-labeled anti-human antibodies purchased from Miltenyi Biotec (Auburn, CA) and the secondary detection reagent recommended by the manufacturer.
# [4] = Plate binding of FITC-labelled heparin to immobilised biotinylated peptides; details: 400 ng peptide/well, 1 ug FITC-heparin, PBS; normalized to immX3 peptide binding = 100
# Experimental: as §1
# [5] = test system: HFF-1 human fibroblast cell line; experiment: Collagen stimulating activity in HFF-1 dermal fibroblasts (Collagen-1 ELISA); type: cell-based; details: peptide 2 uM, 72 hour; control (buffer) set to 100
# Experimental: Immodulin peptides have potential untility in the field of cosmetics. HFF-1 human fibroblast cell line was obtained from the American Type Culture Collection (ATCC). Cells were grown in a T-75 flask in DMEM Medium containing 10% fetal bovine serum and penicillin-streptomycin at 37° C. in a humidified, 5% CO2 incubator. Cells ([…], 2,000 cells/well) were plated in a 96-well plate and incubated overnight at 37° C. in a humidified, 5% CO2 incubator. Next day, […] of compounds were added (quadruplicate wells). After 72 hour incubation with the compound, supernatants were collected for Collagen-1 ELISA assay and cell viability was measured in a luminometer after the addition of […] CellTiterGlo reagent (Promega Inc, Madison, WI) as recommended by the manufacturer. Collagen stimulating activity of immodulin peptides in HFF-1 dermal fibroblasts: Peptides were added to cells at 2 uM. Collagen-1A1 (COL1) immunoreactivity was measured in the supernatants of cultured cells by ELISA using a rabbit monoclonal anti-COL1 primary antibody (Abcam, Cambridge, MA). Control (buffer) value of immunoreactivity was set to 100.
# [6] = test system: C2C12 myoblastic cell line; experiment: C2C12 myoblast differentiation, creatine kinase; type: cell-based; details: 0.66 uM peptide, 96 hours; helper none; relative to immX3AVD = 100
# Experimental: Differentiation assays employed the C2C12 myoblastic cell line (ATCC, Manassas, VA) seeded at 2×10e5 cells per well in 96-well plates and cultured at 37 degrees C. in DMEM growth medium plus 10% fetal bovine serum and 1% penicillin/streptomycin. For differentiation, 10% fetal bovine serum was replaced with 2% horse serum. 0.66 uM peptide was then added, and incubation continued for an additional 96 hours. Plates with adherent cells were washed with PBS, lysed with Lytic-M buffer (Sigma Chemical Company, St. Louis, MO) and the lysates were assayed for creatine kinase using a kit purchased from Bioassay Systems (Cat. #ECPK-100, Hayward, CA). Effects were visually confirmed with microscopy tracking myotube formation. Results were expressed as units per milliliter relative to the control immX3AVD peptide, and p values were also calculated and shown relative to control immX3AVD peptide (** p<0.05 versus immX3AVD control; avg±SD).
# [7] = test system: Primary human T-cells pre-selected for recognizing GAD65 peptide antigen; experiment: GAD65-specific primary T-cell differentiation on peptide-treated THP1-Dual cells; type: cell-based; details: peptide 0.66 uM, GAD65 1 ug/ml; for FoxP3 (AU): cell extracts, immX3AVD = 100
# Experimental: as §2
# Another non-myeloid lineage was also tested. Primary human T-cells pre-selected for recognizing GAD65 peptide antigen, and the peptide antigen itself were purchased from Cellero LLC (Memphis, TN). THP1-Dual cells were treated with both GAD65 peptide antigen (1 ug/ml) and immodulin peptide (0.66 uM) using the protocol described in Example 2. After completion of the myeloid cell differentiation step (24 hours), supernatants were collected and 100,000 primary T-cells were added to each well in RPMI-1640 medium (100 uL per well). Plates were incubated for an additional 96 hours and cell extracts were prepared using CellLytic-M reagent (Sigma Chemical Co., St Louis, MO). Supernatants were assayed for CCL22, IL-10 and TGFbeta, and cell extracts assayed for FoxP3, all by ELISA using reagents from R&D Systems, Minneapolis, MN. The results are shown in the table below (**p<0.05 vs immX3AVD, set to=100): […]
# [8] = Second binding experiment: FITC-HMW-HA binding with holotransferrin, pH and cold competitors; set-up: key to FITC-HMW-HA binding, +cold LMW-HA / FITC-HMW-HA binding, +cold HMW-HA: fluorescence counts normalized to peptide binding control = 100; details: holotransferrin 10 ug/well; for FITC-HMW-HA binding, +cold HMW-HA: HMW-HA 10 ug/well; for FITC-HMW-HA binding, +cold LMW-HA: LMW-HA hexamer 10 ug/well; for FITC-HMW-HA binding, +cold PIP2: excess PIP2 500 ng/well
# Experimental: as §1
# A second binding experiment was done as above, but using either 6 mM sodium phosphate buffer pH 7.4 or sodium citrate buffer pH 5.2 in the presence of FITC-HMW-HA (1.5 ug/well), holotransferrin (10 ug/well) and excess PIP2 (500 ng/well), LMW-HA (hexamer; 10 ug/well) or HMW-HA (10 ug/well). **p<0.05 versus peptide binding control (=100);
molecule,measurement,setting,value
CSCC[C@H](NC(=O)[C@H](CCCCN)NC(=O)[C@H](CS)NC(=O)[C@H](CCC(N)=O)NC(=O)[C@H](CCCCN)NC(=O)[C@H](CC(C)C)NC(=O)[C@H](CC(N)=O)NC(=O)[C@H](Cc1ccc(O)cc1)NC(=O)[C@H](CC(C)C)NC(=O)CNC(=O)[C@H](Cc1c[nH]cn1)NC(=O)[C@@H](N)CCCCN)C(=O)N[C@@H](CO)C(=O)N[C@@H](CC(C)C)C(=O)N[C@@H](CC(N)=O)C(=O)NCC(=O)N[C@@H](CCC(N)=O)C(=O)N[C@@H](CCCNC(=N)N)C(=O)NCC(=O)N[C@@H](CCC(=O)O)C(=O)N[C@@H](CS)C(=O)N[C@@H](Cc1c[nH]c2ccccc12)C(=O)O [imm2],Binding to Phosphatidylinositol,[1],—
same,"Binding to PtdIns(3,4,5)P [PIP3]",[1],—
same,Binding to PtdIns(4)P [PIP1],[1],—
same,"Binding to PtdIns(4,5)P [PIP2]",[1],—
same,Hyaluronate binding (fluorescence counts),[2],3.1 ± 9.8
same,CD169+ (AU),[3],3.0 ± 0.5 AU
same,Heparin binding (fluorescence counts),[4],27.4 ± 22.9
N=C(N)NCCC[C@H](NC(=O)[C@H](CCCNC(=N)N)NC(=O)[C@H](CCC(N)=O)NC(=O)CNC(=O)[C@H](CCC(N)=O)NC(=O)[C@H](CO)NC(=O)[C@H](CO)NC(=O)[C@H](CCCNC(=N)N)NC(=O)[C@H](CS)NC(=O)[C@H](CCC(N)=O)NC(=O)[C@H](CCCNC(=N)N)NC(=O)[C@H](CCCCN)NC(=O)[C@H](CCCNC(=N)N)NC(=O)[C@H](Cc1ccc(O)cc1)NC(=O)[C@H](Cc1ccccc1)NC(=O)CNC(=O)[C@H](CCCNC(=N)N)NC(=O)[C@@H](N)Cc1c[nH]cn1)C(=O)NCC(=O)N1CCC[C@H]1C(=O)N[C@@H](CS)C(=O)N[C@@H](Cc1c[nH]c2ccccc12)C(=O)O [imm6] (H-HRGFYRKRQCRSSQGQRRGPCW-OH),Binding to Phosphatidylinositol,[1],—
same,"Binding to PtdIns(3,4,5)P [PIP3]",[1],—
same,Binding to PtdIns(4)P [PIP1],[1],—
same,Hyaluronate binding (fluorescence counts),[2],44.9 ± 14.1**
same,CD169+ (AU),[3],19.9 ± 2.3 AU
same,Heparin binding (fluorescence counts),[4],97.2 ± 17.3
AFNSYELGSKGFYKKKQCRPSKGRKRGFCW [imm3K9],COL1 (Collagen-1A1 immunoreactivity in supernatant),[5],155**
AFNSYELGSKGFYKKKQCRPSKGRKRGFCWAVDKY [imm3K9c],COL1 (Collagen-1A1 immunoreactivity in supernatant),[5],158**
AFNSYELGSKKGFYKKKQCRPSKGRKRGFCW [imm3K9.1],COL1 (Collagen-1A1 immunoreactivity in supernatant),[5],156**
FNSYELGSLKKGFYKKKQCRPSKGRKRGFCW [imm3K8],COL1 (Collagen-1A1 immunoreactivity in supernatant),[5],98
KKGFYKKKQCRPSKGRKRGFCW(dA)(dV)(dD) (KKGFYKKKQCRPSKGRKRGFCW[dA][dV][dD]; cysteine pairing not given here) [immX3dAdVdD],Creatine Kinase Act.,[6],132.8 ± 5.2** units per milliliter
same,Hyaluronate binding (fluorescence counts),[2],104.2 ± 14.7
same,CD169+ (AU),[3],183.3 ± 6.4 AU
same,Clec12A(AU),[3],106.6 ± 5.2 AU
same,Heparin binding (fluorescence counts),[4],55.5 ± 5.7**
KKGFYKKKQCRPSKGRKRGFCW(dS)(dV)(dD) (KKGFYKKKQCRPSKGRKRGFCW[dS][dV][dD]; cysteine pairing not given here) [immX3dSdVdD],FoxP3 (AU),[7],176.6 ± 8.0** AU
same,CCL22,[7]; supernatant,77.8 ± 2.0 pg/mL
same,IL-10,[7]; supernatant,1534 ± 176.4 pg/mL
same,TGFb,[7]; supernatant,87.6 ± 10.7 pg/mL
same,Creatine Kinase Act.,[6],155.6 ± 14.1** units per milliliter
same,CD169+ (AU),[3],145.7 ± 9.3 AU
RKGFYKRKQCKPSRGRKRGICWAVD [immX5AVD],"FITC-HMW-HA binding, CONTROL",[8]; pH 5.2,66.6 ± 7.2**
same,"FITC-HMW-HA binding, +cold HMW-HA",[8]; pH 5.2,9.6 ± 6.5**
same,"FITC-HMW-HA binding, +cold LMW-HA",[8]; pH 5.2,76.8 ± 5.9
same,"FITC-HMW-HA binding, +cold PIP2",[8]; pH 5.2,52.8 ± 4.0**
same,"FITC-HMW-HA binding, +cold HMW-HA",[8]; pH 7.4,22.6 ± 8.8**
same,"FITC-HMW-HA binding, +cold LMW-HA",[8]; pH 7.4,94.9 ± 11.4
same,"FITC-HMW-HA binding, +cold PIP2",[8]; pH 7.4,53.7 ± 2.1**
same,"FITC-HMW-HA binding, CONTROL","[8]; pH 7.4, peptide binding control = 100",100.0 ± 7.6
same,FoxP3 (AU),[7],14.8 ± 4.3** AU
same,CCL22 (pg/ml),[7]; supernatant,58.7 ± 2.7** pg/ml
same,IL-10 (pg/ml),[7]; supernatant,870 ± 8.2** pg/ml
same,TGFb (pg/ml),[7]; supernatant,52.8 ± 7.4** pg/ml
same,Hyaluronate binding (fluorescence counts),[2],113.9 ± 15.7
same,CD169+ (AU),[3],100.9 ± 3.5 AU
same,CCL22,[3],228.6 ± 8.1 pg/mL
same,Heparin binding (fluorescence counts),[4],68.7 ± 26.2
RNGNFHPKQCHPALDGQRGKCWAVD [immX4AVD],Hyaluronate binding (fluorescence counts),[2],61.1 ± 34.1
same,CD169+ (AU),[3],1.0 ± 0.3 AU
same,Heparin binding (fluorescence counts),[4],7.3 ± 17.1
SLNPEWNETKGFYKKKQCRPSKGRKRGFCW(dA)(dV)(dD) (SLNPEWNETKGFYKKKQCRPSKGRKRGFCW[dA][dV][dD]; cysteine pairing not given here) [immX3K1dAdVdD],Hyaluronate binding (fluorescence counts),[2],101.9 ± 16.4
same,CD169+ (AU),[3],249.3 ± 13.9 AU
same,Clec12A(AU),[3],321.9 ± 25.6 AU
same,CCL22,[3],135.8 ± 24.2 pg/mL
same,Heparin binding (fluorescence counts),[4],56.0 ± 7.3**
